# Reference: article PMC11926788, “Effect of SSR504734, a Selective Glycine Transporter Type 1 Inhibitor, on Seizure Thresholds, Neurotransmitter Levels, and Inflammatory Markers in Mice” (ACS Chemical Neuroscience, 2025)
# Structures can show the parent of a compound that is named as a salt.
# Key:
# [1] = tested on: i.v. PTZ-induced seizures in mice; experiment: Intravenous (i.v.) PTZ seizure threshold test; type: in vivo; conditions: VPA 150 mg/kg
# Experimental: Mice were individually placed in a plastic restrainer (12 cm long, 3 cm inner diameter), and the lateral vein of each mouse was catheterized using a 27-gauge needle (Sterican, B. Braun Melsungen, Melsungen, Germany). The needle was attached by polyethylene tubing (PE20RW, Plastics One Inc., Roanoke, VA, USA) to a 10 mL plastic syringe containing 1% solution of PTZ in saline (Sigma-Aldrich, St. Louis, MO, USA) and mounted to a syringe pump (model Physio 22, Hugo Sachs Elektronik, Harvard Apparatus GmbH, March-Hugstetten, Germany). Piece of adhesive tape was used to secure the needle. The proper placement of the needle in the vein was verified by the appearance of blood in the tubing. During the test, mice were placed in a transparent box for observation. The PTZ solution was administered to freely moving mice at a constant rate of 0.2 mL/min. The time intervals from the initiation of PTZ infusion to the occurrence of the three following end points, i.e., (1) the first myoclonic twitch, (2) generalized clonic seizure with loss of righting reflex, and (3) forelimb tonus, were recorded. The PTZ infusion was terminated when tonic seizures, which were often fatal for the mice, began. All mice that survived were euthanized immediately. The thresholds were calculated separately for each end point using the following formula: threshold dose of PTZ (mg/kg) = infusion duration (s) × infusion rate (mL/s) × PTZ concentration (mg/mL)/body weight (kg). Seizure threshold was expressed as the amount of PTZ (mg/kg) ± SD (standard deviation) needed to produce the first observable sign of each end point. Each group consisted of 12–15 animals.
# [2] = tested on: tonic hindlimb extension in the MEST test in rats; conditions: cited from earlier work
structure (smiles),measurement,setting,value
"O=C(NC(c1ccccc1)C1CCCCN1)c1cccc(C(F)(F)F)c1Cl [SSR504734, 2-chloro-N-[(S)-phenyl[(2S)-piperidin-2-yl]methyl]-3-trifluoromethyl benzamide monohydrochloride]","effect on thresholds for myoclonic twitch, generalized clonus and forelimb tonus",[1]; 14-day treatment i.p.,no significant effect
same,"effect on thresholds for myoclonic twitch, generalized clonus and forelimb tonus",[1]; single administration i.p.,no significant effect
same,effect on threshold for tonic hindlimb extension,[2],"strong, dose-dependent increase"
